In patent publication US5137892A, “Quinoline, naphthyridine and pyridobenzoxazine derivatives” (Abbott Laboratories, priority 1990, dated 1992):
In brackets after ≈: the same amount, converted by molar mass.

Key:
Format in all cases: cell-based
[1] = test system: Pseudomonas aeruginosa K599/61; conditions: P. aeruginosa K599/61; BHI agar dilution, 20-24 hours; unit assumed
Description: (§1) The activity of the compounds of the present invention was tested against a wide variety of bacteria using standard assay procedures. Minimum inhibitory concentrations (MICs) were determined by the agar dilution method, described below, using Brain Heart Infusion agar.
(§2) Twelve petri dishes were prepared, each containing successive aqueous 2-fold dilutions of the test compounds mixed with 10 mL of sterilized Brain Heart Infusion (BHI) agar. Each plate was inoculated with 100-fold (or 10-fold, for slow-growing strains such as Micrococcus and Streptococcus) dilutions of up to 32 different microorganisms using a Steers replicator block calibrated to deliver approximately 10^4 colony forming units (CFUs). The inoculated plates were incubated at about 35°-37° C. for approximately 20-24 hours. In addition, a control plate, using BHI agar containing no test compound, was prepared and incubated at the beginning and at the end of each test. Ciprofloxacin was used as the reference antibiotic.
(§3) The MIC was defined as the lowest concentration of test compound yielding no growth (a slight haze or sparsely isolated colonies at the inoculum spot as compared to the growth control contaning no test compound.

[2] = test system: Streptococcus bovis A5169; assay: In Vitro Antibacterial Activity, agar dilution MIC; conditions: S. bovis A5169; BHI agar dilution, 20-24 hours; unit assumed
Description: as §1, §2, §3

[3] = test system: Staphylococcus aureus 1775; assay: In Vitro Antibacterial Activity, agar dilution MIC; conditions: S. aureus 1775; BHI agar dilution, 20-24 hours; unit assumed
Description: as §1, §2, §3

[4] = test system: Enterobacter aerogenes ATCC 13048; assay: In Vitro Antibacterial Activity, agar dilution MIC; conditions: E. aerogenes ATCC 13048; BHI agar dilution, 20-24 hours; unit assumed
Description: as §1, §2, §3

[5] = test system: Escherichia coli H560; assay: In Vitro Antibacterial Activity, agar dilution MIC; conditions: E. coli H560; BHI agar dilution, 20-24 hours; unit assumed
Description: as §1, §2, §3

[6] = test system: Staphylococcus aureus A5177; assay: In Vitro Antibacterial Activity, agar dilution MIC; conditions: S. aureus A5177; BHI agar dilution, 20-24 hours; unit assumed
Description: as §1, §2, §3

[7] = test system: Pseudomonas cepacia 2961; assay: In Vitro Antibacterial Activity, agar dilution MIC; conditions: P. cepacia 2961; BHI agar dilution, 20-24 hours; unit assumed
Description: as §1, §2, §3

[8] = test system: Staphylococcus aureus 642A; assay: In Vitro Antibacterial Activity, agar dilution MIC; conditions: S. aureus 642A; BHI agar dilution, 20-24 hours; unit assumed
Description: as §1, §2, §3

[9] = test system: Escherichia coli KNK 437; assay: In Vitro Antibacterial Activity, agar dilution MIC; conditions: E. coli KNK 437; BHI agar dilution, 20-24 hours; unit assumed
Description: as §1, §2, §3

[10] = test system: Klebsiella pneumoniae ATCC 8045; assay: In Vitro Antibacterial Activity, agar dilution MIC; conditions: K. pneumoniae ATCC 8045; BHI agar dilution, 20-24 hours; unit assumed
Description: as §1, §2, §3

[11] = test system: Escherichia coli SS; assay: In Vitro Antibacterial Activity, agar dilution MIC; conditions: E. coli SS; BHI agar dilution, 20-24 hours; unit assumed
Description: as §1, §2, §3

[12] = test system: Staphylococcus aureus ATCC 6538P; assay: In Vitro Antibacterial Activity, agar dilution MIC; conditions: S. aureus ATCC 6538P; BHI agar dilution, 20-24 hours; unit assumed
Description: as §1, §2, §3

[13] = test system: Staphylococcus aureus NCTC 10649; assay: In Vitro Antibacterial Activity, agar dilution MIC; conditions: S. aureus NCTC 10649; BHI agar dilution, 20-24 hours; unit assumed
Description: as §1, §2, §3

[14] = test system: Micrococcus luteus ATCC 9341; assay: In Vitro Antibacterial Activity, agar dilution MIC; conditions: M. luteus ATCC 9341; BHI agar dilution, 20-24 hours; unit assumed
Description: as §1, §2, §3

[15] = test system: Escherichia coli DC-2; assay: In Vitro Antibacterial Activity, agar dilution MIC; conditions: E. coli DC-2; BHI agar dilution, 20-24 hours; unit assumed
Description: as §1, §2, §3

[16] = test system: Acinetobacter SP CMX 699; assay: In Vitro Antibacterial Activity, agar dilution MIC; conditions: BHI agar dilution, 20-24 hours, unit assumed
Description: as §1, §2, §3

[17] = test system: Streptococcus agalactaciae CMX 508; assay: In Vitro Antibacterial Activity, agar dilution MIC; conditions: S. agalactaciae CMX 508; BHI agar dilution, 20-24 hours; unit assumed
Description: as §1, §2, §3

[18] = test system: Streptococcus pyogenes 2548 INDUC; assay: In Vitro Antibacterial Activity, agar dilution MIC; conditions: S. pyogenes 2548 INDUC; BHI agar dilution, 20-24 hours; unit assumed
Description: as §1, §2, §3

[19] = test system: Escherichia coli JUHL; assay: In Vitro Antibacterial Activity, agar dilution MIC; conditions: E. coli JUHL; BHI agar dilution, 20-24 hours; unit assumed
Description: as §1, §2, §3

[20] = test system: Streptococcus pyogenes 930 CONST; assay: In Vitro Antibacterial Activity, agar dilution MIC; conditions: S. pyogenes 930 CONST; BHI agar dilution, 20-24 hours; unit assumed
Description: as §1, §2, §3

[21] = test system: Pseudomonas aeruginosa A5007; assay: In Vitro Antibacterial Activity, agar dilution MIC; conditions: P. aeruginosa A5007; BHI agar dilution, 20-24 hours; unit assumed
Description: as §1, §2, §3

[22] = test system: Staphylococcus aureus CMX 553; assay: In Vitro Antibacterial Activity, agar dilution MIC; conditions: S. aureus CMX 553; BHI agar dilution, 20-24 hours; unit assumed
Description: as §1, §2, §3

[23] = test system: Staphylococcus aureus A-5278; assay: In Vitro Antibacterial Activity, agar dilution MIC; conditions: S. aureus A-5278; BHI agar dilution, 20-24 hours; unit assumed
Description: as §1, §2, §3

[24] = test system: Pseudomonas aeruginosa BMH10; assay: In Vitro Antibacterial Activity, agar dilution MIC; conditions: P. aeruginosa BMH10; BHI agar dilution, 20-24 hours; unit assumed
Description: as §1, §2, §3

[25] = test system: Staphylococcus epidermidis 3519; assay: In Vitro Antibacterial Activity, agar dilution MIC; conditions: S. epidermidis 3519; BHI agar dilution, 20-24 hours; unit assumed
Description: as §1, §2, §3

[26] = test system: Micrococcus luteus ATCC 4698; assay: In Vitro Antibacterial Activity, agar dilution MIC; conditions: M. luteus ATCC 4698; BHI agar dilution, 20-24 hours; unit assumed
Description: as §1, §2, §3

[27] = test system: Enterococcus faecium ATCC 8043; assay: In Vitro Antibacterial Activity, agar dilution MIC; conditions: E. faecium ATCC 8043; BHI agar dilution, 20-24 hours; unit assumed
Description: as §1, §2, §3

[28] = test system: Streptococcus pyogenes EES61; assay: In Vitro Antibacterial Activity, agar dilution MIC; conditions: S. pyogenes EES61; BHI agar dilution, 20-24 hours; unit assumed
Description: as §1, §2, §3

[29] = test system: Pseudomonas aeruginosa K799/WT; assay: In Vitro Antibacterial Activity, agar dilution MIC; conditions: P. aeruginosa K799/WT; BHI agar dilution, 20-24 hours; unit assumed
Description: as §1, §2, §3

[30] = test system: Providencia stuartii CMX 640; assay: In Vitro Antibacterial Activity, agar dilution MIC; conditions: P. stuartii CMX 640; BHI agar dilution, 20-24 hours; unit assumed
Description: as §1, §2, §3

[31] = test system: Pseudomonas aeruginosa 2862; assay: In Vitro Antibacterial Activity, agar dilution MIC; conditions: P. aeruginosa 2862; BHI agar dilution, 20-24 hours; unit assumed
Description: as §1, §2, §3

[32] = test system: Pseudomonas aeruginosa 5263; assay: In Vitro Antibacterial Activity, agar dilution MIC; conditions: P. aeruginosa 5263; BHI agar dilution, 20-24 hours; unit assumed
Description: as §1, §2, §3

Structure (SMILES): NC1CN(c2c(F)cc3c(=O)c(C(=O)O)cn(C4CC4)c3c2F)CC12OCCO2 (centres unmarked) [Example 274, 1-Cyclopropyl-6,8-difluoro-7-(9-amino-1,4-dioxa-7-azaspiro[4.4]non-7-yl)-1,4-dihydro-4-oxo-3-quinolinecarboxylic acid]
- MIC values [1]: 0.1 mg/L (≈ 0.245 µM)
- MIC values [2]: 0.39 mg/L (≈ 0.957 µM)
- MIC values [3]: 6.2 mg/L (≈ 15.2 µM)
- MIC values [4]: 0.2 mg/L (≈ 0.491 µM)
- MIC values [5]: 0.2 mg/L (≈ 0.491 µM)
- MIC values [6]: 0.1 mg/L (≈ 0.245 µM)
- MIC values [7]: 6.2 mg/L (≈ 15.2 µM)
- MIC values [8]: 0.1 mg/L (≈ 0.245 µM)
- MIC values [9]: 0.78 mg/L (≈ 1.91 µM)
- MIC values [10]: 0.05 mg/L (≈ 0.123 µM)
- MIC values [11]: 0.002 mg/L (≈ 0.00491 µM)
- MIC values [12]: 0.05 mg/L (≈ 0.123 µM)
- MIC values [13]: 0.05 mg/L (≈ 0.123 µM)
- MIC values [14]: 0.39 mg/L (≈ 0.957 µM)
- MIC values [15]: 0.78 mg/L (≈ 1.91 µM)
- MIC values [16]: 0.2 mg/L (≈ 0.491 µM)
- MIC values [17]: 0.2 mg/L (≈ 0.491 µM)
- MIC values [18]: 0.1 mg/L (≈ 0.245 µM)
- MIC values [19]: 0.05 mg/L (≈ 0.123 µM)
- MIC values [20]: 0.2 mg/L (≈ 0.491 µM)
- MIC values [21]: 1.56 mg/L (≈ 3.83 µM)
- MIC values [22]: 0.1 mg/L (≈ 0.245 µM)
- MIC values [23]: 0.05 mg/L (≈ 0.123 µM)
- MIC values [24]: 1.56 mg/L (≈ 3.83 µM)
- MIC values [25]: 0.1 mg/L (≈ 0.245 µM)
- MIC values [26]: 0.39 mg/L (≈ 0.957 µM)
- MIC values [27]: 0.39 mg/L (≈ 0.957 µM)
- MIC values [28]: 0.2 mg/L (≈ 0.491 µM)
- MIC values [29]: 1.56 mg/L (≈ 3.83 µM)
- MIC values [30]: 0.78 mg/L (≈ 1.91 µM)

Structure (SMILES): C[C@@H]1COc2c(N3CCC4(CC3)OCCCO4)c(F)cc3c(=O)c(C(=O)O)cn1c23 [Example 330]
- MIC values [1]: 0.78 mg/L (≈ 1.86 µM)
- MIC values [2]: 3.1 mg/L (≈ 7.41 µM)
- MIC values [3]: 6.2 mg/L (≈ 14.8 µM)
- MIC values [4]: 6.2 mg/L (≈ 14.8 µM)
- MIC values [5]: 1.56 mg/L (≈ 3.73 µM)
- MIC values [6]: 0.2 mg/L (≈ 0.478 µM)
- MIC values [7]: 12.5 mg/L (≈ 29.9 µM)
- MIC values [8]: 0.2 mg/L (≈ 0.478 µM)
- MIC values [9]: 12.5 mg/L (≈ 29.9 µM)
- MIC values [10]: 0.78 mg/L (≈ 1.86 µM)
- MIC values [11]: 0.01 mg/L (≈ 0.0239 µM)
- MIC values [12]: 0.1 mg/L (≈ 0.239 µM)
- MIC values [13]: 0.1 mg/L (≈ 0.239 µM)
- MIC values [14]: 1.56 mg/L (≈ 3.73 µM)
- MIC values [15]: 12.5 mg/L (≈ 29.9 µM)
- MIC values [16]: 3.1 mg/L (≈ 7.41 µM)
- MIC values [17]: 0.78 mg/L (≈ 1.86 µM)
- MIC values [18]: 0.78 mg/L (≈ 1.86 µM)
- MIC values [31]: > 100 mg/L
- MIC values [19]: 1.56 mg/L (≈ 3.73 µM)
- MIC values [20]: 1.56 mg/L (≈ 3.73 µM)
- MIC values [21]: 12.5 mg/L (≈ 29.9 µM)
- MIC values [22]: 0.2 mg/L (≈ 0.478 µM)
- MIC values [23]: 0.1 mg/L (≈ 0.239 µM)
- MIC values [24]: 12.5 mg/L (≈ 29.9 µM)
- MIC values [25]: 0.2 mg/L (≈ 0.478 µM)
- MIC values [32]: > 100 mg/L
- MIC values [26]: 0.78 mg/L (≈ 1.86 µM)
- MIC values [27]: 0.78 mg/L (≈ 1.86 µM)
- MIC values [28]: 1.56 mg/L (≈ 3.73 µM)
- MIC values [29]: 12.5 mg/L (≈ 29.9 µM)
- MIC values [30]: 50 mg/L (≈ 119 µM)
